Test results published in US20190040025A1, “INDOLEAMINE 2,3-DIOXYGENASE INHIBITOR, PREPARATION METHOD THEREFOR, AND APPLICATION” (Jiangsu Hansoh Pharmaceutical Group Co., Ltd., priority 2016, published 2019).

What was measured:
[1] = test system: mouse rectal cancer cell line Colon26; test: Anti-tumor effect in Colon26 tumor-bearing mouse model; assay type: in vivo, mouse (Balb/c); conditions: Colon26 tumor-bearing mice, 25 mg/kg intragastric twice a day
From the text: The present invention further used the Colon26 tumor-bearing mouse model to test the anti-tumor effect of the example compounds. The Colon26 tumor-bearing mouse model was the mouse rectal cancer cell line Colon26 purchased from Guangzhou Ginio Biological Technology Co., Ltd., and the culture medium used was RPMI1640 containing 10% fetal bovine serum. The mouse strain used for tumor-bearing was Balb/c purchased from Sino-British SIPPR/BK Lab Animal Co., Ltd. At the time of implanting, the Colon26 cells in logarithmic growth phase were collected and mixed to 10 million cells/ml. Each mouse was implanted subcutaneously with 100 μl of one million cells. When the tumor grew to about 100 cubic millimeters, animals were randomly divided into groups with 8 animals per group. Drug administration was started (D0).
Mode of administration: intragastric administration, twice a day.
(§1) Formulation prescription: 3% dimethylacetamide and 20% hydroxypropyl-β-cyclodextrin. • Administration period and tumor measurement: The administration period was 13 days. The tumor volume was measured, the mice were weighed, and the data were recorded, 3 times per week. The calculation formula of tumor volume (V) is: V=½a×b2 where a and b represent length and width, respectively. The calculation formula of T/C is: T/C (%)=100×ΔT/ΔC. Tumor inhibition rate (%)=1−T/C (%). • Experimental results: The antitumor effect of the compound of Example 15 in Colon26 tumor-bearing mouse model is shown in the following table.
Under the same experimental conditions, the dosage was adjusted. The anti-tumor effect of Example 15 and its optical isomers 18-(1) and 18-(2) in Colon26 tumor-bearing mouse model is shown in the following table: […]

[2] = test system: mouse pancreatic cancer cell line PAN02; test: Anti-tumor effect in PAN02 tumor-bearing mouse model; assay type: in vivo, mouse (C57/BL6); conditions: PAN02 tumor-bearing mice, 50 mg/kg intragastric twice a day
From the text: The invention used the PAN02 tumor-bearing mouse model to test the anti-tumor effect of the example compounds. The PAN02 tumor-bearing mouse model was the mouse pancreatic cancer cell line PAN02 purchased from Guangzhou Ginnio Biological Technology Co., Ltd., and the culture medium used was DMEM containing 10% fetal bovine serum. The mouse strain used for tumor-bearing was C57/BL6 purchased from Shanghai Slac Laboratory Animal Co., Ltd. At the time of implanting, the PAN02 cells in the logarithmic growth phase were collected, and mixed with the BDMatrigel matrix gel that reduced the growth factor to 50 million cells/ml. Each mouse was implanted subcutaneously with 100 μL of 5 million cells. When the tumor grew to about 100 cubic millimeters, animals were randomly divided into groups with 8 animals per group. Drug administration was started (D0).
Mode of administration: intragastrical administration, twice a day.
as §1, with “3% two methyl acetamide” for “3% dimethylacetamide”, “times a” for “times per”, “is: V=½a×b2,” for “is: V=½a×b2”, “and width” for “and width,”, “results: the anti-tumor” for “results: The antitumor”, “in PAN02” for “in Colon26”

[3] = Pharmacokinetic (PK) analysis of rat plasma; assay type: in vivo; conditions: Sprague-Dawley, po, 20 mg/kg, SD rats, single gavage, 20 mg/10 mL/kg
Protocol: The pharmacokinetics test of the test compound was performed with Sprague Dawley (SD) rats (Shanghai Slac Laboratory Animal Co., LTD).
Mode of administration: Single gavage.
U Dosage: 20 mg/10 mL/kg.
Formulation prescription: 3% dimethylacetamide and 20% hydroxypropyl-3-cyclodextrin.
Sampling points: before administration and 15 minutes, 0.5, 1, 2, 4, 6, 8 and 24 hours after administration.
Plasma sampling and sample processing: • 1) 0.2 ml of intravenous blood was collected and placed in an EDTA-2K tube. The blood was centrifuged at 4° C. for 5 minutes at 6,000 rpm to separate the plasma, which was stored at −80° C. • 2) 160 μL of acetonitrile were added to 40 μL of plasma sample, standard, and internal reference. The mixture was shaken vertically for 3 minutes, and centrifuged at 4000 rpm for 10 minutes. 100 μL of the supernatant were taken, and then added with 100 μL of deionized water and mixed well. 100 μL of the resulting solution was taken for LC/MS/MS analysis. The instrument for plasma LC/MS/MS analysis was AB Sciex API 4000.
Liquid Chromatography Analysis: • Liquid chromatography conditions: Shimadzu LC-20AD pump • Chromatographic column: phenomenex Gemiu 5 μm C18 50×4.6 mm • Mobile phase: solution A was 0.1% formic acid solution, and solution B was acetonitrile • Flow rate: 0.8 mL/min • Elution time: 0-3.01 minutes and the eluent was as follows:
• Mass spectrometry analysis: setup conditions of mass spectrometer: positive ion electrospray ionization (ESI) mode. • Experimental results: the main parameters of pharmacokinetics were calculated by WinNonlin 6.1 and the experimental results are shown in the following table: […]

NS(=O)(=O)NCCNc1nonc1C(=NO)Nc1ccc(F)c(Br)c1 [INCB-24360, Epacadostat, reference compound]
Average tumor volume (mm^3 ± SEM) D0 ([1]; D0 (start of administration)): 95.3 ± 2.4 mm^3
Average tumor volume (mm^3 ± SEM) D12 ([1]; D12): 565.2 ± 10.9 mm^3
T/C (%) D12 ([1]; D12): 21.6%
Tumor inhibition rate (%) D12 ([1]; D12, 25 mg/kg): 78.4%
Average tumor volume (mm^3 ± SEM) D0 ([2]; D0 (start of administration)): 102.8 ± 3.4 mm^3
Average tumor volume (mm^3 ± SEM) D12 ([2]; D12): 242.1 ± 23.4 mm^3
T/C (%) D12 ([2]; D12): 60.3%
Tumor inhibition rate (%) D12 ([2]; D12, 50 mg/kg): 39.7%
AUC(0-inf) [3]: 2450 ng·h/mL
Cmax [3]: 306 ng/mL
Tmax [3]: 1 h
half-life [3]: 3.5 h
